Assay results published in ChEMBL document CHEMBL3046805, “Synthesis and antimalarial evaluation of novel pyridine quinoline hybrids” (Med Chem Res, 2008).

Experiments:
Plasmodium falciparum [1] = test: Antiplasmodial activity against chloroquine-sensitive Plasmodium falciparum assessed as vacuolar accumulation ratio; format: functional
[2] = Inhibition of beta-hematin polymerization after 24 hr by spectrophotometric analysis; format: physicochemical
Plasmodium falciparum [3] = test: Antiplasmodial activity against chloroquine-sensitive Plasmodium falciparum after 30 to 34 hr by schizont maturation assay; format: functional, organism-based

Row | Structure (SMILES) | Ratio (Plasmodium falciparum [1]) | IC50 [2] [µM] | IC50 (Plasmodium falciparum [3]) [µM]
1 | Brc1cc2c(c3ncccc13)Oc1cc(Br)c3cccnc3c1O2 | 1.01 | 2780 | 7.4
2 | CCN(CC)CCCC(C)Nc1ccnc2cc(Cl)ccc12 (stereo not given) [CHLOROQUINE] | – | 1890 | –
3 | Brc1cc2c(c3ncccc13)Oc1ncccc1O2 | 1.03 | 2170 | 6.4
4 | Clc1ncccc1Oc1cc2c(c3ncccc13)Oc1ncccc1O2 | 1.2 | 2110 | 3.7
